In series [1] the test system is Na—K Pump and cSrc. Put plainly: In vitro correction of the effect of mutated adducin or ouabain on Na-K pump and cSrc. Type of series: biochemical. The following applies: picomolar concentrations in vitro.
Series [2] relates to Na—K Pump and cSrc. Put plainly: Correction of the effect of mutated adducin or ouabain on Na-K pump and cSrc in animals. The series is classed as in vivo. The following applies: nanomoles doses in animals.
Series [3] is described as follows: Maximal tolerated dose without any effects (NOAEL) in animals. Particulars: in vivo, read-out: maximal tolerated dose that does not produce any effects (NOAEL).
Series [4] relates to hypertensive patients. The experiment in a line: Pharmacogenomic study: change of office systolic blood pressure (DSBP5_0) after 5 weeks of rostafuroxin vs placebo, by genotype. The series is classed as in vivo, human. Particulars: 0.05 to 0.50 mg/day vs 1.5 to 5 mg/day.
Series [5] has as its system hypertensive patients. The experiment in a line: Two separate studies: blood pressure change with HCTZ, Losartan and rostafuroxin in patients carrying profile 4, 8 or 9. Type of series: in vivo, human. Particulars: preliminary data. The source says: In particular, individuals carrying profile 4 show a modification in blood pressure of: −12.3±1.5 mmHg with HCTZ; −11.3±1.7 with Losartan and −18.74±1.8 mmHg with rostafuroxin; individuals with profile 8 show the a decrease in blood pressure of −11.3±1.2 with HCTZ; −11.6±1.3 with Losartan and −15.2±1.5 mmHg with rostafuroxin; individuals with profile 9 show the a decrease in blood pressure of −11.9±1.2 with HCTZ; −11.4±1.4 with Losartan and −15.2±1.5 mmHg with rostafuroxin.

SMILES strings stand for the structures.

`C[C@]12CC[C@H](O)C[C@H]1CC[C@@H]1[C@@H]2CC[C@]2(C)[C@@](O)(c3ccoc3)CC[C@]12O` [rostafuroxin, 17β-(3-furyl)-5β-androstane-3β,14β,17α-triol]: the “correction of the effect of mutated adducin or ouabain on Na—K Pump and cSrc” value with Na—K Pump and cSrc [1] was “able to selectively correct the effect of mutated adducin or ouabain on Na—K Pump and cSrc, without blocking the effect of wild adducin”; with Na—K Pump and cSrc [2], “able to selectively correct the effect of mutated adducin or ouabain on Na—K Pump and cSrc, without blocking the effect of wild adducin”. Further, the NOAEL in series [3] amounted to 100 mg/kg. Moreover, in the series with hypertensive patients [4], the “drop of night blood pressure, low doses vs high doses” value is “relevantly higher drop of night blood pressure as compared to high doses”. For the same compound, the “modification in blood pressure” value in the series with hypertensive patients [5] (individuals carrying profile 4) was −18.74±1.8 mmHg. Moreover, the “decrease in blood pressure” value in the series on hypertensive patients [5] (individuals with profile 8) and in the series with hypertensive patients [5] (individuals with profile 9) was −15.2±1.5 mmHg each time.

A word on the NOAEL: it is the highest tested level that showed no adverse finding.

The values above are taken from US9408854B2, “Methods and systems for pharmacogenomic treatment of cardiovascular conditions” (ROSTAQUO S.P.A., priority 2009, dated 2016).
